System: scalp hair follicles
Test: Epilation force measured with trichotillometer vs placebo (Example 5)
Assay type: in vivo, human
Conditions: 10% solution vs placebo, average of 10 subjects; listed as 10% PE
Method: To evaluate the effect of a topically applied α1-AR agonist on the force required to pluck hairs from the scalp, a hand-held spring dynamometer, or “trichotillometer” was used (8). The trichotillometer records the maximum force threshold, in grams, required to pluck a single hair from the scalp; the performance and statistical variance of the instrument have been reported previously (8-10). Force measurements were performed using the trichotillometer on 10 subjects. The frontal area of scalp was divided into two 8×10 cm2 areas. On the right side 0.5 mL of a placebo vehicle was applied. […] After 45 minutes, ten hairs were plucked from each of the target areas with the trichotillometer.

For CNC[C@H](O)c1cccc(O)c1 [phenylephrine], the “average increase of epilation force threshold” value was 172%.
